Laboratory results reported in PubChem BioAssay AID1963963 (Molecular Pharmacology Branch, DTP, NCI, 2024).

Test system: 958667-338-R-J2-PDC tumor spheroids viability
Assay: Anticancer human tumor 958667-338-R-J2-PDC patient-derived colon adenocarcinoma cell line growth inhibition [PI3K]
Conditions: spheroids with HUVEC and MSC; for IC50: curve of first compound; for viability, T/C: stronger effect = lower value
How it was run: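 Three cell types, namely tumor cells, endothelial cells and mesenchymal stem cells, formed each spheroid. Combinations with four PI3K inhibitors were screened at clinically achievable concentrations decreasing by half-log, and spheroid viability was recorded.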

[1] = second compound 0.0316 µM, first compound 0.000316 µM
[2] = second compound 0.0316 µM, first compound 0.001 µM
[3] = second compound 0.0316 µM, first compound 0.00316 µM
[4] = second compound 0.0316 µM, first compound 0.01 µM
[5] = second compound 0.0316 µM, first compound 0.0316 µM
[6] = second compound 0.0316 µM, first compound 0.1 µM
[7] = second compound 0.1 µM, first compound 0.000316 µM
[8] = second compound 0.1 µM, first compound 0.001 µM
[9] = second compound 0.1 µM, first compound 0.00316 µM
[10] = second compound 0.1 µM, first compound 0.01 µM
[11] = second compound 0.1 µM, first compound 0.0316 µM
[12] = second compound 0.1 µM, first compound 0.1 µM
[13] = second compound 0.316 µM, first compound 0.000316 µM
[14] = second compound 0.316 µM, first compound 0.001 µM
[15] = second compound 0.316 µM, first compound 0.00316 µM
[16] = second compound 0.316 µM, first compound 0.01 µM
[17] = second compound 0.316 µM, first compound 0.0316 µM
[18] = second compound 0.316 µM, first compound 0.1 µM
[19] = second compound 1 µM, first compound 0.000316 µM
[20] = second compound 1 µM, first compound 0.001 µM
[21] = second compound 1 µM, first compound 0.00316 µM
[22] = second compound 1 µM, first compound 0.01 µM
[23] = second compound 1 µM, first compound 0.0316 µM
[24] = second compound 1 µM, first compound 0.1 µM
[25] = second compound 3.16 µM, first compound 0.000316 µM
[26] = second compound 3.16 µM, first compound 0.001 µM
[27] = second compound 3.16 µM, first compound 0.00316 µM
[28] = second compound 3.16 µM, first compound 0.01 µM
[29] = second compound 3.16 µM, first compound 0.0316 µM
[30] = second compound 3.16 µM, first compound 0.1 µM
[31] = second compound 10 µM, first compound 0.000316 µM
[32] = second compound 10 µM, first compound 0.001 µM
[33] = second compound 10 µM, first compound 0.00316 µM
[34] = second compound 10 µM, first compound 0.01 µM
[35] = second compound 10 µM, first compound 0.0316 µM
[36] = second compound 10 µM, first compound 0.1 µM
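Further: spheroids exposed to compounds for seven days before readout.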

`CC(=O)c1c(C)c2cnc(Nc3ccc(N4CCNCC4)cn3)nc2n(C2CCCC2)c1=O` + CC(Nc1ncnc2nc[nH]c12)c1cc2cccc(Cl)c2c(=O)n1-c1ccccc1 showed an IC50 (second compound 0.0316 µM) of over 100 nM, an IC50 (second compound 0.1 µM) of over 100 nM and an IC50 (second compound 0.316 µM) of over 100 nM. The IC50 (second compound 1 µM) was over 100 nM, the IC50 (second compound 3.16 µM) was over 100 nM and the IC50 (second compound 10 µM) was over 100 nM. The viability, T/C [1] was 106%, the viability, T/C [2] was 101% and the viability, T/C [3] was 95.3%. For the same compound, the viability, T/C [4] was 117%, the viability, T/C [5] was 90.2% and the viability, T/C [6] was 91.6%. For the same compound, the viability, T/C [7] was 117%, the viability, T/C [8] was 103% and the viability, T/C [9] was 89.2%. For the same compound, the viability, T/C [10] was 96.8%, the viability, T/C [11] was 105% and the viability, T/C [12] was 74.4%. The viability, T/C [13] was 98.6%, the viability, T/C [14] was 89.5% and the viability, T/C [15] was 91.3%. The viability, T/C [16] was 103%, the viability, T/C [17] was 118% and the viability, T/C [18] was 83.1%. The viability, T/C [19] was 99.3%, the viability, T/C [20] was 126% and the viability, T/C [21] was 95.4%. For the same compound, the viability, T/C [22] was 106%, the viability, T/C [23] was 104% and the viability, T/C [24] was 87.9%. The viability, T/C [25] was 108%, the viability, T/C [26] was 71.5% and the viability, T/C [27] was 118%. For the same compound, the viability, T/C [28] was 97.5%, the viability, T/C [29] was 97% and the viability, T/C [30] was 95.7%. For the same compound, the viability, T/C [31] was 103%, the viability, T/C [32] was 79.5% and the viability, T/C [33] was 95%. It also gave a viability, T/C [34] of 101%, a viability, T/C [35] of 90.4% and a viability, T/C [36] of 67.6%.

With `CC(C)n1nc(-c2ccc3oc(N)nc3c2)c2c(N)ncnc21` + CC(Nc1ncnc2nc[nH]c12)c1cc2cccc(Cl)c2c(=O)n1-c1ccccc1 the IC50 (second compound 0.0316 µM) was 74.9 nM, the IC50 (second compound 0.1 µM) was 71.7 nM and the IC50 (second compound 0.316 µM) was 77.9 nM. For the same compound, the IC50 (second compound 1 µM) was 82.9 nM, the IC50 (second compound 3.16 µM) was 59.3 nM and the IC50 (second compound 10 µM) was 61.4 nM. For the same compound, the viability, T/C [1] was 96.8%, the viability, T/C [2] was 95.3% and the viability, T/C [3] was 98.5%. The viability, T/C [4] was 112%, the viability, T/C [5] was 73.6% and the viability, T/C [6] was 42.1%. For the same compound, the viability, T/C [7] was 127%, the viability, T/C [8] was 101% and the viability, T/C [9] was 107%. For the same compound, the viability, T/C [10] was 92.8%, the viability, T/C [11] was 74.7% and the viability, T/C [12] was 39.4%. For the same compound, the viability, T/C [13] was 95.2%, the viability, T/C [14] was 84.7% and the viability, T/C [15] was 90.8%. The viability, T/C [16] was 98.9%, the viability, T/C [17] was 69.2% and the viability, T/C [18] was 44.7%. For the same compound, the viability, T/C [19] was 95.2%, the viability, T/C [20] was 92.8% and the viability, T/C [21] was 82.4%. The viability, T/C [22] was 100%, the viability, T/C [23] was 73.9% and the viability, T/C [24] was 45.4%. The viability, T/C [25] was 86%, the viability, T/C [26] was 91.4% and the viability, T/C [27] was 98.5%. It also gave a viability, T/C [28] of 89.3%, a viability, T/C [29] of 60.7% and a viability, T/C [30] of 41.2%. It also gave a viability, T/C [31] of 100%, a viability, T/C [32] of 75.1% and a viability, T/C [33] of 70.4%. The viability, T/C [34] was 83.5%, the viability, T/C [35] was 71.8% and the viability, T/C [36] was 33.7%.
